# From paper PMC11243693, “Synthesis and Biological Evaluation of New Compounds with Nitroimidazole Moiety” (Molecules, 2024)
# Where two headings read alike, the source gives them in different places.
# Columns and labels:
# [1] = system: Bacillus cereus ATCC 10876; assay: Broth microdilution, B. cereus ATCC 10876; format: cell-based; conditions: Bc 10876; for MBC/MIC Ratio: <4 bactericidal, ≥4 bacteriostatic
# Protocol: (§1) The antibacterial activity of the obtained thiosemicarbazides and hydrazide–hydrazones was determined by evaluating their ability to inhibit microbial growth in vitro using the broth microdilution method, according to the guidelines of the European Committee on Antimicrobial Susceptibility Testing (EUCAST). The method involved the preparation of microbial suspensions with a standardized density of 0.5 on the McFarland scale (equivalent to 1.5 × 10^8 colony-forming units/mL for bacteria and […] for fungi). A solution of the test substances was then prepared (initial concentration 1000 µg/mL, diluted in sterile Mueller-Hinton broth for bacteria or Mueller-Hinton with 2% glucose for fungi). The test was carried out in 96-well polystyrene flat-bottom plates (Medlab, Poland) with 100 µL of appropriate sterile microbiological medium in each well. The first wells were filled with 200 µL of the test substance, diluted to the initial concentration, and then double-decreasing dilutions were made under aseptic conditions using an automatic pipette. The final step was the addition of a 10-fold diluted microbial suspension of 2 µL. At the same time, the following controls were included: (a) medium control (100 µL of sterile medium without microorganisms added), (b) microbial viability control, (c) test substance control (dilutions without added micro-organisms), (d) positive control of the drug used in the clinic. The plates thus prepared were incubated for 18 ± 2 h at 35 ± 2 °C under conditions optimal for the growth of the test microorganisms. After incubation, the spectrophotometric absorbance at 570 nm in each well of the plate was read. The aim of this part of the study was to determine two parameters: the minimum inhibitory concentration (MIC) and the minimum bactericidal or fungicidal concentration (MBC/MFC) of the test compound. […] The MBC value was determined by adding 5 µL of the contents of each well of the plate to solid sterile MHA or MHA + 2%glc medium for bacteria and fungi, respectively. The area on the plate where 99.9% inhibition of microbial growth was observed indicated the lethal concentration. In addition, the quotient MBC(MFC)/MIC could be determined to assess the nature of the activity of the test substance. If MBC(MFC)/MIC was <4, the test substance was bactericidal/fungicidal, whereas if MBC(MFC)/MIC was ≥4, it was bacteriostatic/fungistatic. Amoxicillin (Glentham Life Sciences, USA) and nystatin (Glentham Life Sciences, USA) were used as the controls for this assay.
# (§2) The test was performed either on bacteria, comprising: Gram-positive (Staphylococcus aureus ATCC 25923, Staphylococcus aureus ATCC 6538, Staphylococcus aureus ATCC 43300 methicillin-resistant MRSA, Staphylococcus epidermidis ATCC 12228, Micrococcus luteus ATCC 10240, Bacillus subtilis ATCC 6633, Bacillus cereus ATCC 10876) and Gram-negative (Escherichia coli ATCC 25922, Pseudomonas aeruginosa ATCC 27853, Proteus mirabilis ATCC 12453, Klebsiella pneumoniae ATCC 13883) or yeast (Candida parapsilosis ATCC 22019, Candida glabrata ATCC 90030, Candida krusei ATCC 14243, Candida glabrata ATCC 15126, Candida tropicalis ATCC 1369, Candida auris CDC B11903, Candida lusitaniae ATCC 3449) reference strains from the American Type Culture Collection (ATCC) or the Centers for Disease Control and Prevention (CDC).
# [2] = system: Staphylococcus aureus ATCC 25923; assay: Broth microdilution, S. aureus ATCC 25923; format: cell-based; conditions: Sa 25923
# Protocol: as §1, §2
# [3] = system: Candida glabrata ATCC 90030; assay: Broth microdilution, C. glabrata ATCC 90030; format: cell-based; conditions: Cg 90030
# Protocol: as §1, §2
# [4] = system: Staphylococcus aureus ATCC 43300 methicillin-resistant MRSA; assay: Broth microdilution, S. aureus ATCC 43300 MRSA; format: cell-based; conditions: Sa 43300 MRSA
# Protocol: as §1, §2
# [5] = system: Candida lusitaniae ATCC 3449; assay: Broth microdilution, C. lusitaniae ATCC 3449; format: cell-based; conditions: Cl 3449
# Protocol: as §1, §2
# [6] = system: Micrococcus luteus ATCC 10240; assay: Broth microdilution, M. luteus ATCC 10240; format: cell-based; conditions: Ml 10240; for MBC/MIC Ratio: <4 bactericidal, ≥4 bacteriostatic
# Protocol: as §1, §2
# [7] = system: Candida krusei ATCC 14243; assay: Broth microdilution, C. krusei ATCC 14243; format: cell-based; conditions: Ck 14243
# Protocol: as §1, §2
# [8] = system: Candida glabrata ATCC 15126; assay: Broth microdilution, C. glabrata ATCC 15126; format: cell-based; conditions: Cg 15126
# Protocol: as §1, §2
# [9] = system: Candida parapsilosis ATCC 22019; assay: Broth microdilution, C. parapsilosis ATCC 22019; format: cell-based; conditions: Cp 22019
# Protocol: as §1, §2
# [10] = system: Staphylococcus aureus ATCC 6538; assay: Broth microdilution, S. aureus ATCC 6538; format: cell-based; conditions: Sa 6538
# Protocol: as §1, §2
# [11] = system: Staphylococcus epidermidis ATCC 12228; assay: Broth microdilution, S. epidermidis ATCC 12228; format: cell-based; conditions: Se 12228; for MBC/MIC Ratio: <4 bactericidal, ≥4 bacteriostatic
# Protocol: as §1, §2
# [12] = system: Candida tropicalis ATCC 1369; assay: Broth microdilution, C. tropicalis ATCC 1369; format: cell-based; conditions: Ct 1369
# Protocol: as §1, §2
# Candida auris CDC B11903 = assay: Broth microdilution, C. auris CDC B11903; format: cell-based; conditions: Ca B11903
# Protocol: as §1, §2
# [13] = system: Bacillus subtilis ATCC 6633; assay: Broth microdilution, B. subtilis ATCC 6633; format: cell-based; conditions: Bs 6633; for MBC/MIC Ratio: <4 bactericidal, ≥4 bacteriostatic
# Protocol: as §1, §2
compound,measurement,setting,value
"COc1cccc(C=NNC(=O)c2nc([N+](=O)[O-])cn2C)c1 [Compound 24, N’-[(3-methoxyphenyl)methylidene]-1-methyl-4-nitro-1H-imidazole-2-carbohydrazide]",melting point,,208 to 210 °C
"Cn1cc([N+](=O)[O-])nc1C(=O)NN=Cc1cccc(O)c1 [Compound 27, N’-[(3-hydroxyphenyl)methylidene]-1-methyl-4-nitro-1H-imidazole-2-carbohydrazide]",melting point,,208 to 210 °C
"Cn1cc([N+](=O)[O-])nc1C(=O)NN=Cc1cccc(Cl)c1F [Compound 28, N’-[(3-chloro-2-fluorophenyl)methylidene]-1-methyl-4-nitro-1H-imidazole-2-carbohydrazide]",melting point,,252 to 255 °C
"Cn1cc([N+](=O)[O-])nc1C(=O)NN=Cc1ccccc1Cl [Compound 20, N’-[(2-chlorophenyl)methylidene]-1-methyl-4-nitro-1H-imidazole-2-carbohydrazide]",melting point,,234 to 236 °C
"COc1cc(Cl)ccc1C=NNC(=O)c1nc([N+](=O)[O-])cn1C [Compound 29, N’-[(4-chloro-2-methoxyphenyl)methylidene]-1-methyl-4-nitro-1H-imidazole-2-carbohydrazide]",melting point,,234 to 237 °C
Cn1cc([N+](=O)[O-])nc1C(=O)NNC(=S)Nc1cccc(F)c1 [Compound 7],MBC,[1],500 µg/mL
same,MIC,[1],500 µg/mL
same,MBC/MIC Ratio,[1],1
same,MBC,[2],>1000 µg/mL
same,MIC,[2],250 µg/mL
same,MIC,[3],>1000 µg/mL
same,MBC,[4],>1000 µg/mL
same,MIC,[4],500 µg/mL
same,MIC,[5],>1000 µg/mL
same,MBC,[6],250 µg/mL
same,MIC,[6],250 µg/mL
same,MBC/MIC Ratio,[6],1
same,MIC,[7],>1000 µg/mL
same,MIC,[8],>1000 µg/mL
same,MIC,[9],>1000 µg/mL
same,MBC,[10],>1000 µg/mL
same,MIC,[10],500 µg/mL
same,MBC,[11],>1000 µg/mL
same,MIC,[11],250 µg/mL
same,MFC,[12],>1000 µg/mL
same,MIC,[12],250 µg/mL
same,MIC,Candida auris CDC B11903,>1000 µg/mL
same,MBC,[13],250 µg/mL
same,MIC,[13],125 µg/mL
same,MBC/MIC Ratio,[13],2
COc1ccc(NC(=S)NNC(=O)c2nc([N+](=O)[O-])cn2C)cc1 [Compound 11],MBC,[1],250 µg/mL
same,MIC,[1],250 µg/mL
same,MBC/MIC Ratio,[1],1
same,MBC,[2],>1000 µg/mL
same,MIC,[2],500 µg/mL
same,MIC,[3],>1000 µg/mL
same,MBC,[4],>1000 µg/mL
same,MIC,[4],1000 µg/mL
same,MIC,[5],>1000 µg/mL
same,MBC,[6],500 µg/mL
same,MIC,[6],250 µg/mL
same,MBC/MIC Ratio,[6],2
same,MIC,[7],>1000 µg/mL
same,MIC,[8],>1000 µg/mL
same,MFC,[9],>1000 µg/mL
same,MIC,[9],250 µg/mL
same,MBC,[10],>1000 µg/mL
same,MIC,[10],1000 µg/mL
same,MBC,[11],>1000 µg/mL
same,MIC,[11],500 µg/mL
same,MFC,[12],>1000 µg/mL
same,MIC,[12],250 µg/mL
same,MIC,Candida auris CDC B11903,>1000 µg/mL
same,MBC,[13],250 µg/mL
same,MIC,[13],250 µg/mL
same,MBC/MIC Ratio,[13],1
"Cc1ccc(NC(=S)NNC(=O)c2nc([N+](=O)[O-])cn2C)cc1 [Compound 17, 1-[(1-methyl-4-nitroimidazol-2-yl)carbonyl]-4-(4-methylphenyl)thiosemicarbazide]",MBC,"[1]; Bacillus cereus, ATCC10876, read-out: MBC",> 1000 µg/mL
same,MIC,"[1]; Bacillus cereus, ATCC10876, read-out: MIC",62.5 µg/mL
same,MBC,"[2]; Staphylococcus aureus, ATCC25923, read-out: MBC",> 1000 µg/mL
same,MIC,"[2]; Staphylococcus aureus, ATCC25923, read-out: MIC",125 µg/mL
same,MIC,"[3]; Nakaseomyces glabratus, ATCC90030, read-out: MIC",> 1000 µg/mL
same,MBC,"[4]; Staphylococcus aureus, read-out: MBC",> 1000 µg/mL
same,MIC,"[4]; Staphylococcus aureus, read-out: MIC",125 µg/mL
same,MIC,"[5]; Clavispora lusitaniae, ATCC3449, read-out: MIC",> 1000 µg/mL
same,MBC,"[6]; Micrococcus luteus, ATCC10240, read-out: MBC",> 1000 µg/mL
same,MIC,"[6]; Micrococcus luteus, ATCC10240, read-out: MIC",500 µg/mL
same,MIC,"[7]; Pichia kudriavzevii, ATCC14243, read-out: MIC",> 1000 µg/mL
same,MIC,"[8]; Nakaseomyces glabratus, ATCC15126, read-out: MIC",> 1000 µg/mL
same,MIC,"[9]; Lodderomyces parapsilosis, ATCC22019, read-out: MIC",> 1000 µg/mL
same,MBC/MIC Ratio,"[10]; <4 bactericidal, ≥4 bacteriostatic",1
same,MBC,"[10]; Staphylococcus aureus, ATCC6538, read-out: MBC",125 µg/mL
same,MIC,"[10]; Staphylococcus aureus, ATCC6538, read-out: MIC",125 µg/mL
same,MBC,"[11]; Staphylococcus epidermidis, ATCC12228, read-out: MBC",> 1000 µg/mL
same,MIC,"[11]; Staphylococcus epidermidis, ATCC12228, read-out: MIC",500 µg/mL
same,MFC,"[12]; Candida tropicalis, ATCC1369, read-out: MFC",> 1000 µg/mL
same,MIC,"[12]; Candida tropicalis, ATCC1369, read-out: MIC",250 µg/mL
same,MIC,"Candida auris CDC B11903; Candidozyma auris, CDCB11903, read-out: MIC",> 1000 µg/mL
same,MBC,"[13]; Bacillus subtilis, ATCC6633, read-out: MBC",> 1000 µg/mL
same,MIC,"[13]; Bacillus subtilis, ATCC6633, read-out: MIC",500 µg/mL
Cn1cc([N+](=O)[O-])nc1C(=O)NNC(=S)Nc1ccccc1 [Compound 2],MIC,[1],>1000 µg/mL
same,MBC,[2],>1000 µg/mL
same,MIC,[2],500 µg/mL
same,MIC,[3],>1000 µg/mL
same,MIC,[4],>1000 µg/mL
same,MIC,[5],>1000 µg/mL
same,MBC,[6],1000 µg/mL
same,MIC,[6],1000 µg/mL
same,MBC/MIC Ratio,[6],1
same,MIC,[7],>1000 µg/mL
same,MIC,[8],>1000 µg/mL
same,MFC,[9],>1000 µg/mL
same,MIC,[9],500 µg/mL
same,MBC,[10],>1000 µg/mL
same,MIC,[10],1000 µg/mL
same,MBC,[11],1000 µg/mL
same,MIC,[11],1000 µg/mL
same,MBC/MIC Ratio,[11],1
same,MFC,[12],>1000 µg/mL
same,MIC,[12],500 µg/mL
same,MIC,Candida auris CDC B11903,>1000 µg/mL
same,MBC,[13],>1000 µg/mL
same,MIC,[13],1000 µg/mL
Cn1cc([N+](=O)[O-])nc1C(=O)NNC(=S)Nc1ccc(F)cc1 [Compound 8],MBC,[1],1000 µg/mL
same,MIC,[1],500 µg/mL
same,MBC/MIC Ratio,[1],2
same,MBC,[2],>1000 µg/mL
same,MIC,[2],250 µg/mL
same,MIC,[3],>1000 µg/mL
same,MBC,[4],>1000 µg/mL
same,MIC,[4],1000 µg/mL
same,MIC,[5],>1000 µg/mL
same,MBC,[6],500 µg/mL
same,MIC,[6],250 µg/mL
same,MBC/MIC Ratio,[6],2
same,MIC,[7],>1000 µg/mL
same,MIC,[8],>1000 µg/mL
same,MFC,[9],>1000 µg/mL
same,MIC,[9],1000 µg/mL
same,MIC,[10],>1000 µg/mL
same,MBC,[11],500 µg/mL
same,MIC,[11],500 µg/mL
same,MBC/MIC Ratio,[11],1
same,MFC,[12],>1000 µg/mL
same,MIC,[12],250 µg/mL
same,MIC,Candida auris CDC B11903,>1000 µg/mL
same,MBC,[13],250 µg/mL
same,MIC,[13],250 µg/mL
same,MBC/MIC Ratio,[13],1
